Test results published in US10314843B2, “Combinations for the treatment of neoplasms using quiescent cell targeting and inhibitors of mitosis” (Felicitex Therapeutics, Inc., priority 2016, dated 2019).

Assays:
SW620 cells [1] = assay: FACS cell cycle distribution (Acridine Orange), SW620 cells; assay type: cell-based; conditions: combination of Compound I-7 (4 μM) with paclitaxel (2 nM), FBS+ media, 24 hours
Text: (§1) The following cell lines were obtained from ATCC and cultured according to the ATCC recommendations: DMS273—small cell lung cancer cell line; H1975—non-small cell lung cancer cell line harboring L858R and T790M mutations in EGFR TK; A549—a non-small cell lung cancer cell line with wild type EGFR; LNCap—prostate cancer cell line; SW620—colon cancer cell line; MiaPaCa2—pancreatic cancer cell line; PANC1—pancreatic cancer cell line; OVCAR3—ovarian cancer cell line; SK-OV-3—ovarian cancer cell line.
(§2) Cell cultures were seeded into 6-well plates at 3×10^5-6×10^5 cells/well; the plated number of cells depended on cell size and rate of proliferation, aiming for approximately 50% confluency. After seeding, the cells were allowed to attach for 24 hours while incubated at 37° C. in a humidified 5% CO2 atmosphere, and then treated with compounds for desired amount of time (usually 24 hours) incubating under same conditions. Then the cells were harvested by trypsinization, pooled with the floating cells, washed in PBS, and fixed in 70% ice-cold ethanol overnight. For Acridine Orange (AO) staining, fixed cells were washed once with ice-cold PBS, re-suspended in 100 μL PBS, followed by addition of 200 μL of permeabilizing solution and 600 μL AO staining solution. The measurements were performed with Guava easyCyte HT flow cytometer (EMD Millipore) using the blue laser for excitation at 488 nm, monitoring emission of the AO-DNA complex at 526 nm and AO-RNA complex at 650 nm. The complete protocol and composition of buffers are described in the literature (Darzynkiewicz Z, Juan G, and Srour E F (2004) Differential Staining of DNA and RNA (2004). Current Protocols in Cytometry, Chapter 7:Unit 7.3).

SW620 cells [2] = assay: FACS cell cycle distribution by DNA content (propidium iodide), SW620 cells in FBS- media; assay type: cell-based; conditions: 24 hours in FBS- media, AZ191 2.5, 5, 10 μM, Compound I-7 1.25, 2.5, 5 μM
Description: as §2, with “[…] […]” for “For Acridine Orange (AO) staining, fixed cells were washed once with ice-cold PBS, re-suspended in 100 μL PBS, followed by addition of 200 μL of permeabilizing solution and 600 μL AO staining solution. The measurements were performed with Guava easyCyte HT flow cytometer (EMD Millipore) using the blue laser for excitation at 488 nm, monitoring emission of the AO-DNA complex at 526 nm and AO-RNA complex at 650 nm.”
The SW620 cells were cultured and treated as described in Example 1. For propidium iodide (PI) staining, manufacturer's protocol supplied with the Guava Cell Cycle Reagent for Flow Cytometry (EMD Millipore) was followed. The measurements were performed with Guava PCA-96 flow cytometer (EMD Millipore) using the green laser for excitation at 535 nm and monitoring emission at 617 nm.
The SW620 cells were cultured, treated, and analyzed as described in Examples 1. […]

DMS273 cells = assay: FACS cell cycle distribution (Acridine Orange), DMS273 cells; assay type: cell-based; conditions: FBS+ media, 24 hours
Text: as §1, §2

quiescent cancer cells = conditions: in vitro; reported by Ewton et al. 2011; cited from earlier work
[3] = combination of Compound I-7 (4 μM) with vincristine (1.1 nM)
[4] = combination of Compound I-7 (4 μM) with vinorelbine (8.1 nM)
[5] = combination of Compound I-7 with paclitaxel

SMILES | cytotoxicity (fraction of apoptotic cells, sub-G0 population) (SW620 cells [1]) | fraction of cells in G0 (SW620 cells [1]) | fraction of cells in quiescent state (G0), based on fraction of cells in G0+G1 phase (SW620 cells [2]) | cytotoxicity (fraction of apoptotic cells, sub-G0 population) (DMS273 cells; [3]) | fraction of cells in G0 (DMS273 cells; [3]) | cytotoxicity (fraction of apoptotic cells, sub-G0 population) (DMS273 cells; [4]) | fraction of cells in G0 (DMS273 cells; [4]) | cytotoxicity (fraction of apoptotic cells, sub-G0 population) (DMS273 cells; [5]) | fraction of cells in G0 (DMS273 cells; [5]) | effectiveness against quiescent cancer cells (quiescent cancer cells)
CCOC(=N)c1nc2ccc3ncnc(Nc4cc(F)c(F)cc4Cl)c3c2s1 [Compound I-7] | significantly higher than that of paclitaxel alone | significant reduction of the fraction of cells in G0 | significant decrease in fraction of cells in quiescent state (G0) | significantly higher than that of vincristine alone | significant reduction of the fraction of cells in G0 | significantly higher than that of vinorelbine alone | significant reduction of the fraction of cells in G0 | significantly higher than that of paclitaxel alone | significant reduction of the fraction of cells in G0 | 
COc1ncc2cc(C(=O)Nc3cc(C(=O)NCc4cccc(Cl)c4)ccc3Cl)c(=O)[nH]c2n1 [TC-S 7004] |  |  |  |  |  |  |  |  |  | effective against quiescent cancer cells in vitro
